From patent US7662812B2, “Diazabicyclic aryl derivatives and their use as chinolinergic ligands at nicotinic acetylcholine receptors” (Neurosearch A/S, priority 2005, dated 2010)

Target: T1, α7-subtype of nicotinic receptors (Rattus norvegicus, UniProt Q05941)
T1 construct: Cerebral cortices from male Wistar rats (150-250 g) are homogenised; from tissue; host or cells: rat cerebral cortex membrane homogenate
Assay: In vitro inhibition of 3H-α-bungarotoxine binding in rat brain
Details: rat cerebral cortex homogenate, 3H-α-bungarotoxine 2 nM, 2 hours at 37° C.

T1 sequence (Q05941 23-502): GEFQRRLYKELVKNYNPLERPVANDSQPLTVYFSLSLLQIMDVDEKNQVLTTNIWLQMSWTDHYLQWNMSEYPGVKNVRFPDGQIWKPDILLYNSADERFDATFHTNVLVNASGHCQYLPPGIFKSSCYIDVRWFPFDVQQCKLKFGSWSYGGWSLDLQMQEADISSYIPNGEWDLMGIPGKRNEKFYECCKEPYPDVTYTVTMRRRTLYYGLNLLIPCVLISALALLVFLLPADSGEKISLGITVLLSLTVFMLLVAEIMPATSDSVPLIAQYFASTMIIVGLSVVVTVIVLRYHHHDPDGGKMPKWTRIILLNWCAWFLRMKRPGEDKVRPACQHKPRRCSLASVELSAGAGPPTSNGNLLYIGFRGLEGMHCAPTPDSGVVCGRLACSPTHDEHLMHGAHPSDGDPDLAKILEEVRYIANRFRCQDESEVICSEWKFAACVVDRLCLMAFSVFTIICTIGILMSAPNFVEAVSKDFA

## CN1C2CCC1CN(c1ccc(C#Cc3ccccc3)nn1)C2 [Compound B1, 8-Methyl-3-(6-phenylethynyl-pyridazin-3-yl)-3,8-diaza-bicyclo[3.2.1]octane]
  IC50: 470 nM
